In patent publication US11925632B2, “Isoquinoline derivatives for use in treating GLUT1 deficiency syndrome” (GLIAPHARM SA, priority 2019, dated 2024):

Tests used:
C57Bl/6J wild-type mice = test: In vivo pharmacodynamics, lactate biosensors (cerebral extracellular lactate); design: species or system mouse; conditions: 3 h recording, AUC ratio vs vehicle
Protocol: (§1) For pharmacodynamics (FIG. 5) and cognition (FIG. 7) experiments, adult male C57Bl/6J wild-type mice weighting 18-28 g (8 weeks of age) were used (Charles River). For ALS mouse models (FIG. 6), G93A SOD1 transgenic male and female mice on B6.SJL1-Gur/J background were used (Jackson Laboratory).
(§2) Animals were housed in groups of 3-5 in polypropylene cages (30×40×15 cm) with wire mesh top in a temperature (22±2° C.) and humidity (55±15%) controlled environment on a 12 hour light cycle (07.00-19.00 h lights on), except after surgeries when animal were housed individually. […]
Cerebral extracellular levels of lactate were monitored in vivo using lactate biosensors (Pinnacle Technology), according to the manufacturer's instructions. […] After surgery, mice were monitored closely and received analgesic treatment for at least 4 days. […] Concentrations of cerebral extracellular lactate were calculated from lactate probe electric signals using post-calibration values. […] Area Under the Curve (AUC) of lactate concentration curves were calculated using Graphpad Prism and the ratio of AUC after drug over Vehicle administration was calculated. Extracellular concentrations of L-lactate were measured in real time in freely moving animals for 3 hours after administration of Vehicle or Compound (1) (FIG. 5).

[1] = tested on: G93A SOD1 transgenic mice; test: SOD1 G93A mouse ALS model (grip test, survival); assay type: in vivo
Protocol: as §1, §2
Transgenic mice on B6.SJL1-Gur/J background overexpressing the human mutated gene G93A SOD1 were used. […] F1 pups were genotyped after ear punching at weaning, using quantitative PCR (qPCR), which allowed determining the number of SOD1 copies in each mouse. […] Each mouse's weight was recorded every day throughout the entire treatment, while neuromuscular function was measured once a week. […]
The experiment was conducted in a room with a low light intensity (30 lux) to reduce stressful environment. […] Mice ability to grip the grid (time [s]) was measured in order to assess for their muscle strength and coordination. […]

wild-type (WT) mice = test: Cerebral extracellular lactate and glucose biosensors, wild-type littermates; assay type: in vivo, mouse; conditions: medial prefrontal cortex, 10 mg/kg and/or 100 mg/kg oral, AUC ratio vs vehicle
Source text: Transgenic mice on 129/SvJ genetic background in which GLUT1 has been knocked-down (GLUT1-DS mice) were used (Wang et al., […], Human Molecular Genetics, 15(7)). Mating colonies were composed of wild-type female mice and GLUT1-DS male mice, or GLUT1-DS female mice and wild-type male mice. F1 pups were genotyped after ear punching at weaning using PCR to determine genotype. Mice of 2 to 3 months of age were used.
Cerebral extracellular levels of lactate and glucose were monitored in vivo in GLUT1-DS transgenic male mice and wild-type (WT) male littermates using lactate and glucose biosensors (Pinnacle Technology), according to the manufacturer's instructions. […] After surgery, mice were monitored closely and received analgesic treatment for at least 4 days. After mice had fully recovered from surgery, compounds of the invention of vehicle were administered per os as previously described and cerebral levels of extracellular lactate or glucose were dynamically recorded for 6 hours using lactate or glucose biosensors, respectively. […] Concentration of cerebral extracellular lactate or glucose was calculated from lactate or glucose probe electric signals, respectively, using post-calibration values, as described by manufacturer. […]

SMILES: COc1cc2ccnc(Nc3ccc(OC(F)(F)F)cc3)c2cc1OC [Example 1, 6,7-dimethoxy-N-(4-(trifluoromethoxy)phenyl)isoquinolin-1-amine]
- Extracellular lactate levels in the brain (C57Bl/6J wild-type mice; 10 mg/kg per os): significantly increases extracellular lactate levels
- Extracellular lactate levels in the brain (C57Bl/6J wild-type mice; 100 mg/kg per os): significantly increases extracellular lactate levels
- Muscle function (grip test), onset of symptoms ([1]; 10 mg/kg oral daily from post-natal day 30, measured weekly until 16 weeks of age): delayed the onset of the symptoms
- Survival (life span, Kaplan-Meier) ([1]; 10 mg/kg oral daily from post-natal day 30, vs vehicle): significantly increased life span
- Extracellular glucose levels in the brain (wild-type (WT) mice): significantly increases
- Extracellular lactate levels in the brain (wild-type (WT) mice): significantly increases
